Reference: ChEMBL document CHEMBL4184134, “Daryamide Analogues from a Marine-Derived Streptomyces species” (J Nat Prod, 2017)
Activity calls are given as the source filed them.

Experiments:
Pseudomonas aeruginosa = assay: Antimicrobial activity against Pseudomonas aeruginosa incubated for 24 hrs by paper disk method; format: functional, organism-based
Bacillus subtilis = assay: Antimicrobial activity against Bacillus subtilis at incubated for 24 hrs by paper disk method; format: functional, organism-based
Homo sapiens = organism: Homo sapiens; assay: Cytotoxicity against human HCC366 cells assessed as reduction in cell viability at 1 nM to 50 uM incubated for 96 hrs by Cell-titer Glo reagent based assay; format: functional
A549 = assay: Cytotoxicity against human A549 cells assessed as reduction in cell viability at 1 nM to 50 uM incubated for 96 hrs by Cell-titer Glo reagent based assay; format: functional
HCC44 = assay: Cytotoxicity against human HCC44 cells assessed as reduction in cell viability at 1 nM to 50 uM incubated for 96 hrs by Cell-titer Glo reagent based assay; format: functional
NCI-H2122 = assay: Cytotoxicity against human NCI-H2122 cells assessed as reduction in cell viability at 1 nM to 50 uM incubated for 96 hrs by Cell-titer Glo reagent based assay; format: functional

Measured: Activity

CC(C)C/C=C/C=C/C(=O)N[C@H]1CCCNC1=O
inactive: all assays above

CCC/C=C/C=C/C(=O)NC1=C[C@@](O)(CCC(N)=O)[C@H]2O[C@H]2[C@@H]1O
inactive: all assays above

CC(C)C/C=C/C=C/C(=O)N(CCO)c1cc(CCC(=O)O)c(O)cc1O
inactive: all assays above

CC(C)/C=C/C=C/C(=O)NC1=C[C@@](O)(CCC(N)=O)[C@H]2O[C@H]2[C@@H]1O
inactive: all assays above

CC(C)C/C=C/C=C/C(=O)NC1=C[C@@](O)(CCC(N)=O)[C@H]2O[C@H]2[C@@H]1O
inactive: all assays above
